From patent US20250195474A1, “Piezo Inhibition for Wound Healing” (priority 2022, published 2025)

Experiments:
mouse adipocytes = assay: Mouse adipocyte-populated collagen I hydrogels with or without mechanical stretch; details: 10% equibiaxial strain, 7 days; GsMTx4 500 nM, D-GsMTx4 500 nM, PF573228 10 uM, Verteporfin 300 nM
human adipocytes [1] = assay: Human adipocyte-populated collagen I hydrogels with or without mechanical stretch
human adipocytes [2] = assay: Calcium imaging of hydrogel-bound adipocytes (Fluo-4 AM); type: cell-based; details: stretched human adipocytes
Excerpt: Calcium imaging was used to determine in vitro Ca^2+ flow in hydrogel-bound adipocytes with or without mechanical strain and with or without Piezo1 inhibitor treatment. A Fluo-4, AM cell permeant kit (ThermoFisher, Cat: F-14201) was used per the manufacturer's instructions. […] Imagej was used for image quantification.

dorsal excisional wounds [3] = assay: Splinted dorsal excisional wounding with inhibitor injected at POD 0; type: in vivo, mouse
wounds [4] = assay: Visium spatial transcriptomic analysis of wounds; type: in vivo, mouse
Protocol: Wound specimens were rapidly harvested and flash frozen in OCT. Using the Visium Tissue Optimization Slide and Reagent Kit, permeabilization time was optimized at a thickness at 10 μm per section and 37 minutes for mouse tissue. Following cryo-sectioning at −20 degrees onto gene expression slides the expression slide and reagent kit was used to produce sequencing libraries. The libraries were then sequences using NextSeq (Illumina). Following demultiplication the raw FASTQ files and histology images were processed by sample with the Space Ranger software for genome alignment. The raw spaceranger output files for each sample was then read into a Seurat class object in R using Seurat's Load10× function. Data was normalized using the SCT transform with default parameters. To ascertain the integration of our scRNAseq and Visium spatial analysis we employed the FindTransferAnchors( ) function from Seurat, which allowed the alignment of data using the two datasets. This cross-platform linkage is performed serially in an unconstrained and constrained fashion.

wounds [5] = assay: CODEX spatial protein analysis of POD 14 wounds; type: in vivo, mouse; details: POD 14, vs PBS
Excerpt: To spatially phenotype the pig specimens, we used Co-Detection by Indexing (CODEX), a novel assay in which markers are labeled with oligonucleotide-conjugated antibodies and iteratively imaged between cyclic additions and washouts of dye-labeled oligonucleotides. A custom CODEX panel was designed to assess wound cells within the tissue see Table 1). In brief, primary antibodies were individually barcoded and validated using the commercial supplier's protocols. OCT for mouse or paraffin blocks for human xenograft (n=3 per group) were sectioned at 8 μm thickness onto coverslips for CODEX antibody staining. Antigens were retrieved by standard citrate-EDTA processing prior to addition of CODEX antibodies. Using a CODEX-integrated Keyence BZ-X instrument (Akoya Biosciences) image acquisition was then performed. Using software from Akoya Biosciences the raw images were process, with cell segmentation, and rendering.
The CODEX was visualized using Akoya Biosciences Multiplex Analysis Viewer (MAV) in ImageJ. The resulting .fcs files were then concatenated in FlowJo and imported into the Monocle3 and STvEA R packages for further analysis. After debris removal, the processed UMAP manifold was analyzed through Monocle3 with a post-manifold threshold of >10,000 cells per cluster. Analysis of the protein staining patterns was then used to assign cell types. The cell interactions were then inferred using STvEA for cell types at >2.5% of total abundance at k=20 nearest neighbors to quantify cell spatial interactions, and differential interaction maps were generated using graph scores.

existing scars = assay: Treatment of existing scars during remodeling (scar rescue); type: in vivo, mouse; details: treated at POD 30, 75 or 120, harvested one month later
Excerpt: While wound re-epithelialization is complete relatively quickly (around 2 weeks), wounds continue to heal beneath the surface for months to years in a process known as scar remodeling. (Foster et al., 2021; Gurtner et al., 2008) Remodeling is the longest and least well understood phase of wound repair but is likely critical to ultimate outcomes. We postulated that ADFs could continue to play a role in scarring during the remodeling process; if this were the case, we wondered whether ADF activity could be targeted during wound remodeling, via P1i in existing, actively remodeling scars, to ultimately reduce scarring and drive regeneration (FIG. 6A,C). Thus, we administered P1i to existing scars at POD 30 (early remodeling period), POD 75 (mid-remodeling), and POD 120 (late remodeling), then harvested tissue one month later at POD 60, POD 105, and […] respectively (FIG. 6A, C).

dorsal excisional wounds [6] = details: POD 30; cited from earlier work
adipocytes = assay: Adipocyte ablation with diphtheria toxin in wounded Adipoq Cre-ERT iDTR mice; type: in vivo, mouse
human fibroblasts = assay: Human fibroblasts in 3D collagen gels with stretching; type: cell-based
Excerpt: To further confirm that human cluster 3 represented a pro-regenerative ADF population we utilized our in vitro collagen gel system. We first, FACS sorted human fibroblasts based on expression of cluster 3 markers including ROBO2, CD29, and SFRP2 and seeded them into 3D collagen gels (FIG. 42B). […] In contrast, stretching with P1 inhibition kept the fibroblasts in a more adipocyte-like phenotype, with high expression of PPARg and low expression of Collagen Type I, similar to fibroblasts in an unstretched state (FIG. 42B).
To determine if P1i may activate […] Wnt pathways to maintain cluster 3 in an adipocyte-like phenotype, we applied Wnt5a recombinant protein to the in vitro collagen gel system (FIG. 42C). […] In summary, P1i treatment may revert fibroblasts towards the mechanically naïve fibroblast pro-regenerative fibroblast population through the activation of canonical Wnt pathways and thereby preventing the transition to pro-scarring phenotypes defined by CJUN and VCAM1 expression.

Molecule: CS(=O)(=O)c1cccc(CNc2nc(Nc3ccc4c(c3)CCC(=O)N4)ncc2C(F)(F)F)c1 [FAKi, PF573228]
- stretch-induced phenotypic switch (losing adiponectin, expressing Col1) (mouse adipocytes): abrogated

Molecule: Clc1cccc(Cl)c1CSc1nnc(-c2cnccn2)s1 [Yoda1]
- adipocyte hypertrophy and conversion to fibroblasts (human adipocytes [1]; absence of applied stretch): sufficient to drive adipocyte hypertrophy and conversion to fibroblasts

Molecule: D-GsMTx4 [P2i]
- calcium staining with stretching (human adipocytes [2]): decreased
- time to complete wound re-epithelialization (dorsal excisional wounds [3]; 30 uL of 0.2 mg/ml intradermal at wound edge, POD 0): did not significantly affect
- Oil Red O staining and IF for cytokeratins 14/19 (regenerating appendages) (dorsal excisional wounds [3]; POD 14): presence of putative regenerating sebaceous glands/HF
- adipocyte-derived fibroblasts (ADFs) in wounds (dorsal excisional wounds [3]; POD 14, FACS and histology): significantly reduced
- Col1 and α-SMA (dorsal excisional wounds [3]; POD 14 and POD 30): reduced
- ECM density (dorsal excisional wounds [3]; POD 14 and POD 30): less dense
- hair follicle formation (dorsal excisional wounds [3]; POD 30): allowed for hair follicle formation
- differential interaction maps (Visium) (wounds [4]; POD 14): strong interactions between adipocytes and fibroblasts
- fibroblast scRNA-seq cluster 0 (mechanically sensitive) spatial enrichment (wounds [4]; POD 14): highly enriched in PBS-treated POD 14 wounds compared to P1i or P2i treated wounds
- fibroblast scRNA-seq cluster 5 (mechanically naive) spatial presence (wounds [4]; POD 14): observed
- spatially variable features (gene expression) (wounds [4]; POD 14): high expression of markers associated with the epidermis including Krt1 and Krt14
- adipocyte and epithelial cells in the spatial environment (wounds [4]; POD 14, vs PBS): enriched
- individual adipocyte-fibroblast subpopulation interactions (CODEX) (wounds [5]): enhanced interactions between mechanically naïve subpopulations including adipocyte cluster 1 and fibroblast clusters 2 and 4
- stretch-induced phenotypic switch (losing adiponectin, expressing Col1) (mouse adipocytes): abrogated
- stretch-induced hypertrophy of human adipocytes (human adipocytes [1]; 10% equibiaxial strain, 7 days): reversed

Molecule: Verteporfin [YAPi]
- wound regeneration in existing scars (existing scars): did not induce regeneration
- hair regrowth (previous study, Mascharak et al., 2021a) (dorsal excisional wounds [6]): allow for hair regrowth
- stretch-induced phenotypic switch (losing adiponectin, expressing Col1) (mouse adipocytes): abrogated

Molecule: diphtheria toxin [DT]
- subdermal fat and GFP+ cells (efficacy of ablation) (adipocytes; 200 ng intradermal daily over 3 days, unwounded skin and POD 14 wounds): minimal to no subdermal fat and no GFP^+ cells in wounds
- ECM ultrastructure (adipocytes; POD 14): less scar-like and more closely resembled unwounded skin
- Col1 and α-SMA content (adipocytes; POD 14, vs PBS control scars): decreased
- ECM density (adipocytes; POD 14, vs PBS control scars): less dense
- dermal thickness (adipocytes; POD 14, vs PBS control scars): significantly reduced

B1: Wnt5a recombinant protein: Wnt5a recombinant protein applied to the in vitro collagen gel system (protein, UniProt P41221 62-380, looked up)
Protein Wnt-5a: IIGAQPLCSQLAGLSQGQKKLCHLYQDHMQYIGEGAKTGIKECQYQFRHRRWNCSTVDNTSVFGRVMQIGSRETAFTYAVSAAGVVNAMSRACREGELSTCGCSRAARPKDLPRDWLWGGCGDNIDYGYRFAKEFVDARERERIHAKGSYESARILMNLHNNEAGRRTVYNLADVACKCHGVSGSCSLKTCWLQLADFRKVGDALKEKYDSAAAMRLNSRGKLVQVNSRFNSPTTQDLVYIDPSPDYCVRNESTGSLGTQGRLCNKTSEGMDGCELMCCGRGYDQFKTVQTERCHCKFHWCCYVKCKKCTEIVDQFVCK
- phenotype of human fibroblasts (PPARg, Collagen Type 1) (human fibroblasts): a more adipocyte like phenotype with high expression of PPARg and low expression of Collagen Type 1
